Assay [1] deals with TCR-mediated ERK1/2 activation in Jurkat T cells. The experiment in a line: Anti-CD3 (TCR) induced ERK1/2 activation in Jurkat T cells, immunoblot. To be noted: 2 hours pretreatment, anti-CD3 stimulation. In kind it is cell-based. The procedure: Jurkat T cells were grown at 37° C. under an atmosphere of 5% CO2 in RPMI medium 1640 supplemented with 10% FBS. Cells were pretreated with different concentrations of TTN, TTN D-1, or TTM for 2 hours and stimulated with […] anti-CD3 antibody (OKT3; eBioscience) for 5 min and 30 min, respectively. Subsequently, cells were spinned down at 2000 rpm in 4° C., and cell pellets were lysed in 50 mM Tris-HCl (pH 7.5), 150 mM NaCl, 10% glycerol, 1% NP-40, 50 mM NaF, 10 mM pyrophosphate, 5 mM idoacetate, 1 mM sodium orthovanadate, and the protease inhibitor mixture. After 30 min lysing on ice, the cell lysates were centrifuged at 13,200 rpm for 15 min. Total cellular proteins were separated by SDS/PAGE and transferred electrophoretically to nitrocellulose membrane, which was immunoblotted by appropriate antibodies followed by incubation with HRP-conjugated secondary antibodies. Blots were developed using Pierce Pico ECL reagent (Thermo) according to the manufacturer's instructions.
TTN induces immunosuppression by suppression of TCR-mediated tyrosine phosphorylation and ERK1/2 activity in T cells (Shim et al., 2002). However, the mechanism of action for TTN's ability to block TCR signaling remains undefined. […]

Another assay relates to PP2A. The note with it: literature values; cited from earlier work.
The target in another assay is T1, SHP2 (Homo sapiens, UniProt Q06124).
T1 construct: The expression and purification of the SHP2 catalytic domain (residues 262-528) were described previously; made in house
T1 sequence (Q06124 262-528): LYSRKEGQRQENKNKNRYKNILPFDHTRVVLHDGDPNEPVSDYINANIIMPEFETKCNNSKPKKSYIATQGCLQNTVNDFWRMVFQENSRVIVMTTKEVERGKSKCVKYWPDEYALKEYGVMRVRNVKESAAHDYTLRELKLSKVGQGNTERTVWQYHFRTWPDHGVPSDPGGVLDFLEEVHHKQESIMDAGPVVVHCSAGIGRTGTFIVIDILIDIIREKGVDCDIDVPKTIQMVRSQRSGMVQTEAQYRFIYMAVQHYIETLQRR
The assay is described as follows: Ki measurement, steady-state kinetic analysis of SHP2-catalyzed pNPP hydrolysis. It counts as biochemical.

Description for SHP2: The SHP2-catalyzed hydrolysis of pNPP in the presence of TTN or TTN D-1 was assayed at 25° C. and in the assay buffer described above. The mode of inhibition and K, value were determined in the following manner. At various fixed concentrations of the inhibitor (0-3 Ki), the initial rate at a series of pNPP concentrations was measured by following the production of p-nitrophenol as describe above, ranging from 0.2- to 5-fold the apparent Km values. The data were fitted to appropriate equations using SigmaPlot-Enzyme Kinetics to obtain the inhibition constant and to assess the mode of inhibition.
To further characterize SHP2 inhibition by the TTN and TTN D-1, the IC50 values for TTN and TTN D-1 were measured at a pNPP concentration fixed at the experimentally determined Km for each PTP. […] To establish the mechanism of SHP2 inhibition by TTN and TTN D-1, the inhibition constants and mode of inhibition were determined by steady-state kinetic analysis of the SHP2-catalyzed reaction.

Take tautomycetin [TTN]: the “effect on TCR-mediated ERK1/2 activation” value in assay [1] is recorded as “strongly reduced”. In addition, the IC50 with PP2A is 62 nM. Besides, the “mode of inhibition of the SHP2-catalyzed reaction” value at SHP2 (Lineweaver-Burk, FIG. 2) is “competitive inhibitors”. In addition, at SHP2 (pNPP, 25° C., pH 7.0), the affinity, expressed as Ki, was 1600 ± 100 nM.

The values above are taken from US8637684B2, “Tautomycetin and tautomycetin analog biosynthesis” (Wisconsin Alumni Research Foundation, priority 2010, dated 2014).
